In paper PMC5074247 (Biopharmaceutics & Drug Disposition, 2016):
Like-named read-outs stand apart in the source and are kept apart here. One block for each compound: values may come before it.

Legend:
[1] = cited from earlier work
[2] = ref manufacturer's interview form; cited from earlier work
[3] = cited from earlier work; remark: listed apart in the source
DPP‐4 = conditions: against DPP‐4 ref 2; cited from earlier work
[4] = intravenously administered to rats at doses above 3 mg/kg ref 23; cited from earlier work
[5] = ZDF rat model; compared with sitagliptin ref 39; cited from earlier work
[6] = type: in vivo, Sprague–Dawley rats; conditions: oral 1 mg/kg [^14C]teneligliptin, SD rats

Compound: Cn1c(=O)cc(N2CCC[C@@H](N)C2)n(Cc2ccccc2C#N)c1=O [Alogliptin]
K p of radioactivity ([1]; Heart, oral 3 mg/kg, 4 h, rats ref 22): 2.36
K p of radioactivity ([1]; Kidney, oral 3 mg/kg, 4 h, rats ref 22): 29.7
K p of radioactivity ([1]; Liver, oral 3 mg/kg, 4 h, rats ref 22): 17.3
K p of radioactivity ([1]; Lung, oral 3 mg/kg, 4 h, rats ref 22): 8.6
K p of radioactivity ([1]; Pancreas, oral 3 mg/kg, 4 h, rats ref 22): 4.94
pKa [2]: 8.5
V ss ([3]; intravenous administration to rats ref 19): 3.5 19 l/kg

Compound: Cc1cc2ncc(C(=O)NCC(C)(C)NCC(=O)N3CCC[C@H]3C#N)cn2n1.Cl [Anagliptin, N‐[2‐({2‐[(2S)‐2‐cyanopyrrolidin‐1‐yl]‐2‐oxoethyl}amino)‐2‐methylpropyl]‐2‐methylpyrazolo[1,5‐a]pyrimidine‐6‐carboxamide hydrochloride]
K p of radioactivity ([1]; Heart, oral 10 mg/kg, 6 h, rats ref 21): 0.74
K p of radioactivity ([1]; Kidney, oral 10 mg/kg, 6 h, rats ref 21, 10 mg/kg): 6.71
K p of radioactivity ([1]; Liver, oral 10 mg/kg, 6 h, rats ref 21): 4.36
K p of radioactivity ([1]; Lung, oral 10 mg/kg, 6 h, rats ref 21): 1.50
K p of radioactivity ([1]; Pancreas, oral 10 mg/kg, 6 h, rats ref 21): 0.81
IC50 (DPP‐4): 3.8 nM
pKa [2]: 6.7
V ss ([3]; intravenous administration to rats ref 2): 0.68 L/kg

Compound: CC#CCn1c(N2CCC[C@@H](N)C2)nc2c1c(=O)n(Cc1nc(C)c3ccccc3n1)c(=O)n2C [Linagliptin, 8‐(3‐I‐aminopiperidin‐1‐yl)‐7‐but‐2‐ynyl‐3‐methyl‐1‐(4‐methyl‐quinazolin‐2‐ylmethyl)‐3,7‐dihydropurine‐2,6‐dione]
K p of radioactivity ([1]; Heart, oral 2 mg/kg, 4 h, rats ref 23): 4.78
K p of radioactivity ([1]; Kidney, oral 2 mg/kg, 4 h, rats ref 23, 2 mg/kg): 113
K p of radioactivity ([1]; Kidney, oral 2 mg/kg, 4 h, rats ref 23, listed as linagliptin, 2 mg/kg): around 100
K p of radioactivity ([1]; Liver, oral 2 mg/kg, 4 h, rats ref 23): 42.3
K p of radioactivity ([1]; Lung, oral 2 mg/kg, 4 h, rats ref 23): 11.1
tissue distribution [4]: non‐linear tissue distribution
V ss ([3]; intravenous administration to rats ref 23): 50.3 L/kg
acetylcholine‐induced vascular relaxation [5]: significantly stronger

metabolite detection in plasma ([6]; plasma, 0.5 h): detected at low levels
Compound: Cc1cc(N2CCN(C3CNC(C(=O)N4CC[S+]([O-])C4)C3)CC2)n(-c2ccccc2)n1 (stereo not shown) [M1]

metabolite detection in kidney ([6]; kidney, 0.5, 24 and 72 h): detected in trace concentrations
Compound: O=C(C1CC(N2CCN(c3cc(CO)nn3-c3ccccc3)CC2)CN1)N1CCSC1 (stereo not shown) [M4]

Compound: N#C[C@@H]1C[C@@H]2C[C@@H]2N1C(=O)[C@@H](N)C12CC3CC(CC(O)(C3)C1)C2 [Saxagliptin]
pKa [2]: 7.3
V ss ([3]; intravenous administration to rats ref 20): 5.2 20 l/kg

Compound: N[C@@H](CC(=O)N1CCn2c(nnc2C(F)(F)F)C1)Cc1cc(F)c(F)cc1F [Sitagliptin, (2R)‐4‐Oxo‐4‐[3‐(trifluoromethyl)‐5,6‐dihydro[1,2,4]‐triazolo[4,3‐a]pyrazin‐7(8H)‐yl]‐1‐(2,4,5‐trifluorophenyl)butan‐2‐amine]
K p of radioactivity ([1]; Heart, oral 5 mg/kg, 4 h, rats ref 25): 2.73
K p of radioactivity ([1]; Kidney, oral 5 mg/kg, 4 h, rats ref 25): 14.7
K p of radioactivity ([1]; Liver, oral 5 mg/kg, 4 h, rats ref 25): 22.0
K p of radioactivity ([1]; Lung, oral 5 mg/kg, 4 h, rats ref 25): 9.09
K p of radioactivity ([1]; Pancreas, oral 5 mg/kg, 4 h, rats ref 25): 5.69
pKa [2]: 7.7
V ss ([3]; intravenous administration to rats ref 25): 8.8 25 l/kg

Compound: N#C[C@@H]1CCCN1C(=O)CNC12CC3CC(CC(O)(C3)C1)C2 [Vildagliptin, 1‐[[(3‐Hydroxy‐1‐adamantyl)amino]acetyl]‐2‐cyano‐(S)‐pyrrolidine]
K p of radioactivity ([1]; Heart, oral 100 mg/kg, 4 h, rats ref 26): 1.48
K p of radioactivity ([1]; Kidney, oral 100 mg/kg, 4 h, rats ref 26): 13.4
K p of radioactivity ([1]; Liver, oral 100 mg/kg, 4 h, rats ref 26): 13.6
K p of radioactivity ([1]; Lung, oral 100 mg/kg, 4 h, rats ref 26): 2.60
K p of radioactivity ([1]; Pancreas, oral 100 mg/kg, 4 h, rats ref 26): 3.29
pKa [2]: 7.6
